# Target: T1, rat B1R (bradykinin receptor 1) (Rattus norvegicus, UniProt P97583)
# T1 construct: expressed in transfected cells; host or cells: CHO K1 cells
# T1 sequence (P97583 1-337): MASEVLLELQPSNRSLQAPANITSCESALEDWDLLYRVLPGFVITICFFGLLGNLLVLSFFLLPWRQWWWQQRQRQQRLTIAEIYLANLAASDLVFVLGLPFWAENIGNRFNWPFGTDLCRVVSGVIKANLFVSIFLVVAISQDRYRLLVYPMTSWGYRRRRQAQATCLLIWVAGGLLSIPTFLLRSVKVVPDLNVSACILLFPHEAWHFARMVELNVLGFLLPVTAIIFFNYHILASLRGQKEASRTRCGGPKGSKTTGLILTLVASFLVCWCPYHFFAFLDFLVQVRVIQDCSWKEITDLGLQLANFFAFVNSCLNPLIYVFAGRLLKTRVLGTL
# Assay: FLIPR Ca2+ assay (Fluo-4) on CHO K1 cells stably transfected with the B1R gene of the rat (rB1R cells): % inhibition at 10 μM / IC50, agonist Des-Arg9-bradykinin
# Assay type: cell-based
# Details: CHO-K1, rat B1R
# Summary of the method: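 Antagonism is measured as the drop in peak Fluo-4 Ca2+ signal when the EC80 agonist follows 10–20 min compound exposure. The single-point screen uses 10 μM; IC50 uses several concentrations. Values are given as % of maximal achievable inhibition.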
row,SMILES,inhibition at 10 µM
1,"N#Cc1ccc(CN2CCC3(CC2)CCN(C(=O)c2ccc4c(c2)C(N(C(=O)c2ccccc2Cl)C2CC2)CC4)C3)cc1 (centres unmarked) [IND_CC-539, 2-Chloro-N-[6-[8-[(4-cyano-phenyl)-methyl]-2,8-diazaspiro[4.5]decane-2-carbonyl]-2,3-dihydro-1H-inden-1-yl]-N-cyclopropyl-benzamide]",75%
2,"N#Cc1cccc(CN2CCC3(CC2)CCN(C(=O)c2ccc4c(c2)C(N(C(=O)c2ccccc2Cl)C2CC2)CC4)C3)c1 (centres unmarked) [IND_CC-540, 2-Chloro-N-[6-[8-[(3-cyano-phenyl)-methyl]-2,8-diazaspiro[4.5]decane-2-carbonyl]-2,3-dihydro-1H-inden-1-yl]-N-cyclopropyl-benzamide]",82%
3,"N#Cc1ccccc1CN1CCC2(CC1)CCN(C(=O)c1ccc3c(c1)C(N(C(=O)c1ccccc1Cl)C1CC1)CC3)C2 (centres unmarked) [IND_CC-541, 2-Chloro-N-[6-[8-[(2-cyano-phenyl)-methyl]-2,8-diazaspiro[4.5]decane-2-carbonyl]-2,3-dihydro-1H-inden-1-yl]-N-cyclopropyl-benzamide]",65%
4,"O=C(NC1CCc2ccc(C(=O)N3CCC4(CCN(Cc5cc(F)ccc5F)CC4)C3)cc21)c1ccccc1Cl (centres unmarked) [IND_CC-543, 2-Chloro-N-[6-[8-[(2,5-difluoro-phenyl)-methyl]-2,8-diazaspiro[4.5]decane-2-carbonyl]-2,3-dihydro-1H-inden-1-yl]-benzamide]",102%
5,"O=C(NC1CCc2ccc(C(=O)N3CCC4(CCN(Cc5ccc(F)cc5F)CC4)C3)cc21)c1ccccc1Cl (centres unmarked) [IND_CC-544, 2-Chloro-N-[6-[8-[(2,4-difluoro-phenyl)-methyl]-2,8-diazaspiro[4.5]decane-2-carbonyl]-2,3-dihydro-1H-inden-1-yl]-benzamide]",99%
6,"COc1ccc(CN2CCC3(CC2)CCN(C(=O)c2ccc4c(c2)C(NC(=O)c2ccccc2Cl)CC4)C3)cc1F (centres unmarked) [IND_CC-545, 2-Chloro-N-[6-[8-[(3-fluoro-4-methoxy-phenyl)-methyl]-2,8-diazaspiro[4.5]decane-2-carbonyl]-2,3-dihydro-1H-inden-1-yl]-benzamide]",105%
7,"COc1cccc(F)c1CN1CCC2(CC1)CCN(C(=O)c1ccc3c(c1)C(NC(=O)c1ccccc1Cl)CC3)C2 (centres unmarked) [IND_CC-546, 2-Chloro-N-[6-[8-[(2-fluoro-6-methoxy-phenyl)-methyl]-2,8-diazaspiro[4.5]decane-2-carbonyl]-2,3-dihydro-1H-inden-1-yl]-benzamide]",99%
8,"O=C(NC1CCc2ccc(C(=O)N3CCC4(CCN(Cc5cc(F)ccc5F)CC4)C3)cc21)c1sccc1Cl (centres unmarked) [IND_CC-547, 3-Chloro-N-[6-[8-[(2,5-difluoro-phenyl)-methyl]-2,8-diazaspiro[4.5]decane-2-carbonyl]-2,3-dihydro-1H-inden-1-yl]-thiophene-2-carboxylic acid amide]",71%
9,"COc1ccc(CN2CCC3(CC2)CCN(C(=O)c2ccc4c(c2)C(NC(=O)c2sccc2Cl)CC4)C3)cc1F (centres unmarked) [IND_CC-548, 3-Chloro-N-[6-[8-[(3-fluoro-4-methoxy-phenyl)-methyl]-2,8-diazaspiro[4.5]decane-2-carbonyl]-2,3-dihydro-1H-inden-1-yl]-thiophene-2-carboxylic acid amide]",66%
10,"CN(C(=O)c1ccccc1Cl)C1CCc2ccc(C(=O)N3CCC4(CCN(Cc5ccc(F)c(F)c5)CC4)C3)cc21 (centres unmarked) [IND_CC-549, 2-Chloro-N-[6-[8-[(3,4-difluoro-phenyl)-methyl]-2,8-diazaspiro[4.5]decane-2-carbonyl]-2,3-dihydro-1H-inden-1-yl]-N-methyl-benzamide]",60%
11,"CN(C(=O)c1ccccc1Cl)C1CCc2ccc(C(=O)N3CCC4(CCN(Cc5cc(F)ccc5F)CC4)C3)cc21 (centres unmarked) [IND_CC-550, 2-Chloro-N-[6-[8-[(2,5-difluoro-phenyl)-methyl]-2,8-diazaspiro[4.5]decane-2-carbonyl]-2,3-dihydro-1H-inden-1-yl]-N-methyl-benzamide]",62%
12,"CN(C(=O)c1ccccc1Cl)C1CCc2ccc(C(=O)N3CCC4(CCN(Cc5ccc(F)cc5F)CC4)C3)cc21 (centres unmarked) [IND_CC-551, 2-Chloro-N-[6-[8-[(2,4-difluoro-phenyl)-methyl]-2,8-diazaspiro[4.5]decane-2-carbonyl]-2,3-dihydro-1H-inden-1-yl]-N-methyl-benzamide]",55%
13,"COc1ccc(CN2CCC3(CC2)CCN(C(=O)c2ccc4c(c2)C(N(C)C(=O)c2ccccc2Cl)CC4)C3)cc1F (centres unmarked) [IND_CC-552, 2-Chloro-N-[6-[8-[(3-fluoro-4-methoxy-phenyl)-methyl]-2,8-diazaspiro[4.5]-decane-2-carbonyl]-2,3-dihydro-1H-inden-1-yl]-N-methyl-benzamide]",68%

# Next, values leading:
row,inhibition at 10 µM,SMILES
1,73%,"Cc1nc(CN2CCC3(CC2)CCN(C(=O)c2ccc4c(c2)C(NC(=O)c2ccccc2Cl)CC4)C3)c[nH]1 (centres unmarked) [IND_CC-554, 2-Chloro-N-[6-[8-[(2-methyl-1H-imidazol-4-yl)-methyl]-2,8-diazaspiro[4.5]decane-2-carbonyl]-2,3-dihydro-1H-inden-1-yl]-benzamide]"
2,91%,"O=C(NC1CCc2ccc(C(=O)N3CCC4(CCN(Cc5csnn5)CC4)C3)cc21)c1ccccc1Cl (centres unmarked) [IND_CC-555, 2-Chloro-N-[6-[8-([1,2,3]thiadiazol-4-yl-methyl)-2,8-diazaspiro[4.5]decane-2-carbonyl]-2,3-dihydro-1H-inden-1-yl]-benzamide]"
3,103%,"O=C(NC1CCc2ccc(C(=O)N3CCC4(CCN(Cc5c(F)cccc5Cl)CC4)C3)cc21)c1ccccc1Cl (centres unmarked) [IND_CC-557, 2-Chloro-N-[6-[8-[(2-chloro-6-fluoro-phenyl)-methyl]-2,8-diazaspiro[4.5]decane-2-carbonyl]-2,3-dihydro-1H-inden-1-yl]-benzamide]"
4,62%,"CN(C(=O)c1ccccc1Cl)C1CCc2ccc(C(=O)N3CCC4(CCN(Cc5c(F)cccc5Cl)CC4)C3)cc21 (centres unmarked) [IND_CC-558, 2-Chloro-N-[6-[8-[(2-chloro-6-fluoro-phenyl)-methyl]-2,8-diazaspiro[4.5]-decane-2-carbonyl]-2,3-dihydro-1H-inden-1-yl]-N-methyl-benzamide]"
5,56%,"Cc1c(CN2CCC3(CC2)CCN(C(=O)c2ccc4c(c2)C(NC(=O)c2ccccc2Cl)CC4)C3)cnn1C (centres unmarked) [IND_CC-559, 2-Chloro-N-[6-[8-[(1,5-dimethyl-1H-pyrazol-4-yl)-methyl]-2,8-diazaspiro[4.5]decane-2-carbonyl]-2,3-dihydro-1H-inden-1-yl]-benzamide]"
6,95%,"Cc1noc(C)c1CN1CCC2(CC1)CCN(C(=O)c1ccc3c(c1)C(NC(=O)c1ccccc1Cl)CC3)C2 (centres unmarked) [IND_CC-560, 2-Chloro-N-[6-[8-[(3,5-dimethyl-isoxazol-4-yl)-methyl]-2,8-diazaspiro[4.5]decane-2-carbonyl]-2,3-dihydro-1H-inden-1-yl]-benzamide]"
7,85%,"N#Cc1ccc(CN2CCC3(CC2)CCN(C(=O)c2ccc4c(c2)C(NC(=O)c2ccccc2Cl)CC4)C3)cc1 (centres unmarked) [IND_CC-561, 2-Chloro-N-[6-[8-[(4-cyano-phenyl)-methyl]-2,8-diazaspiro[4.5]decane-2-carbonyl]-2,3-dihydro-1H-inden-1-yl]-benzamide]"
8,92%,"N#Cc1ccccc1CN1CCC2(CC1)CCN(C(=O)c1ccc3c(c1)C(NC(=O)c1ccccc1Cl)CC3)C2 (centres unmarked) [IND_CC-563, 2-Chloro-N-[6-[8-[(2-cyano-phenyl)-methyl]-2,8-diazaspiro[4.5]decane-2-carbonyl]-2,3-dihydro-1H-inden-1-yl]-benzamide]"
9,81%,"Cc1nn(C)c(C)c1CN1CCC2(CC1)CCN(C(=O)c1ccc3c(c1)C(NC(=O)c1ccccc1Cl)CC3)C2 (centres unmarked) [IND_CC-564, 2-Chloro-N-[6-[8-[(1,3,5-trimethyl-1H-pyrazol-4-yl)-methyl]-2,8-diazaspiro[4.5]decane-2-carbonyl]-2,3-dihydro-1H-inden-1-yl]-benzamide]"
10,68%,"CCn1cc(CN2CCC3(CC2)CCN(C(=O)c2ccc4c(c2)C(NC(=O)c2ccccc2Cl)CC4)C3)c(C)n1 (centres unmarked) [IND_CC-565, 2-Chloro-N-[6-[8-[(1-ethyl-3-methyl-1H-pyrazol-4-yl)-methyl]-2,8-diazaspiro[4.5]decane-2-carbonyl]-2,3-dihydro-1H-inden-1-yl]-benzamide]"
11,90%,"CN(C)c1ncc(CN2CCC3(CC2)CCN(C(=O)c2ccc4c(c2)C(NC(=O)c2ccccc2Cl)CC4)C3)cn1 (centres unmarked) [IND_CC-566, 2-Chloro-N-[6-[8-[(2-dimethylamino-pyrimidin-5-yl)-methyl]-2,8-diazaspiro[4.5]decane-2-carbonyl]-2,3-dihydro-1H-inden-1-yl]-benzamide]"
12,100%,"O=C(NC1CCc2ccc(C(=O)N3CCC4(CCN(Cc5ccc6ncccc6c5)CC4)C3)cc21)c1ccccc1Cl (centres unmarked) [IND_CC-567, 2-Chloro-N-[6-[8-(quinolin-6-yl-methyl)-2,8-diazaspiro[4.5]decane-2-carbonyl]-2,3-dihydro-1H-inden-1-yl]-benzamide]"
13,52%,"N#Cc1ccc(CN2CCC3(CC2)CCN(C(=O)c2ccc4c(c2)C(NC(=O)c2sccc2Cl)CC4)C3)cc1 (centres unmarked) [IND_CC-569, 3-Chloro-N-[6-[8-[(4-cyano-phenyl)-methyl]-2,8-diazaspiro[4.5]decane-2-carbonyl]-2,3-dihydro-1H-inden-1-yl]-thiophene-2-carboxylic acid amide]"
